Data reported in patent US20040034019A1, “Piperazine and piperidine derivatives” (priority 2002, published 2004).

Test system: rat embryo ventral mesencephalic cells
Assay: Neuroprotection assay (NMDA neuroexcitotoxic injury, high affinity 3H-dopamine uptake)
Assay type: cell-based, Sprague-Dawley rat
Details: embryonic day 15 rat VM cell culture, NMDA (100-400 μM) for 20 hours
From the text: The neuroprotective activity of the compounds of this invention may be assayed using rat embryo ventral mesencephalic cells in culture which are subsequently exposed to the glutamate receptor agonist NMDA. This assay is described in detail in the example section.
The ventral mesencephalic region was dissected out of embryonic day 15 Sprague-Dawley rat embryos (Harlan), dissociated into single cell suspension by a combination of trypsinization and trituration (Costantini et al., Neurobiol Dis., pp. 97-106 (1998). Dissociated VM cells were plated into poly-L-ornithine-coated 96-well plates at a density of 85,000 cells/well in 100 uL of DMEM supplemented with 18% heat-inactivated horse serum, 0.24% glucose, 2 mM glutamine and 50 u/ml penicillin/streptomycin and incubated in a 5% CO2 incubator. After one day in culture (DIV1), the medium was replaced with 100 μL of a defined medium (DMEM supplemented with 1× N2 cocktail (Gibco-BRL), 0.12% glucose, 2 mM glutamine, and 50 units/ml penicillin/streptomycin) containing DMSO or various concentrations of the compounds of this invention. On DIV5, neuroexcitotoxic injury was induced by the addition of various concentrations of the glutamate receptor agonist NMDA (100-400 μM). Cultures were incubated with the neurotoxin for 20 hours and the effects of neurophilin compounds were assessed using high affinity ^3H-dopamine uptake according to a procedure published by Park and Mytilineou [Brain Res., 599, pp. 83-97 (1992)].

Row | SMILES | EC50 [nM]
1 | O=C([C@@H]1C[C@@H](c2ccccc2)CN1Cc1ccccc1)N1CCN(C(c2ccc(F)cc2)c2ccc(F)cc2)CC1 [Compound 251] | > 500
2 | CCN1CC[C@@H](c2ccccc2)[C@H]1C(=O)N1CCC(Cc2ccccc2)CC1 [Compound 252] | > 500
3 | O=C([C@@H]1[C@H](c2ccccc2)CCN1Cc1ccccc1)N1CCN(C(c2ccc(F)cc2)c2ccc(F)cc2)CC1 [Compound 253] | > 500
4 | CCN1CC[C@H]1C(=O)N1CCN(C(c2ccc(F)cc2)c2ccc(F)cc2)CC1 [Compound 254] | 100 to 500
5 | CCN1CCC[C@H]1C(=O)N1CCC(Cc2ccc(F)cc2)CC1 [Compound 259] | 100 to 500
6 | C=CCN1CCC[C@H]1C(=O)N1CCC(Cc2ccc(F)cc2)CC1 [Compound 263] | < 100
7 | CC(C)=CCN1CCC[C@H]1C(=O)N1CCC(Cc2ccc(F)cc2)CC1 [Compound 265] | < 100
8 | O=C([C@@H]1CCCN1CC1CC1)N1CCC(Cc2ccc(F)cc2)CC1 [Compound 267] | < 100
9 | O=C([C@@H]1CCCN1C/C=C/c1ccccc1)N1CCC(Cc2ccc(F)cc2)CC1 [Compound 269] | 100 to 500
10 | O=C([C@@H]1CCCN1Cc1ccc(F)cc1)N1CCC(Cc2ccc(F)cc2)CC1 [Compound 271] | < 100
11 | O=C(C1CCN(Cc2ccccc2)CC1)N1CCC(Cc2ccc(F)cc2)CC1 [Compound 272] | 100 to 500
12 | O=C([C@@H]1CCCN1CCc1ccccc1)N1CCC(Cc2ccc(F)cc2)CC1 [Compound 273] | < 100
13 | Cc1ccc(CN2CCC[C@H]2C(=O)N2CCC(Cc3ccc(F)cc3)CC2)cc1 [Compound 275] | < 100
14 | O=C([C@@H]1CCCN1Cc1ccc(F)c(F)c1)N1CCC(Cc2ccc(F)cc2)CC1 [Compound 277] | < 100
15 | O=C(C1CCN(CC2CC2)CC1)N1CCC(Cc2ccc(F)cc2)CC1 [Compound 278] | < 100
16 | O=C([C@@H]1CCCN1Cc1cccc(F)c1)N1CCC(Cc2ccc(F)cc2)CC1 [Compound 279] | < 100
